In the supplement of paper PMC10307832:

Columns and labels:
Assay in all cases: relative viability (nuclei count vs DMSO), 5 days (fraction); higher = more cells survive
CUDC-101 + Linsitinib = compound: C#Cc1cccc(Nc2ncnc3cc(OC)c(OCCCCCCC(=O)NO)cc23)c1 [CUDC-101] + C[C@]1(O)C[C@@H](c2nc(-c3ccc4ccc(-c5ccccc5)nc4c3)c3c(N)nccn32)C1 [Linsitinib] (partner 1 µM)
Outline: (§1)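 The day after seeding in 1536-well plates, lung cancer cell lines were treated by pin tool with a single drug, or with a fixed anchor-drug dose together with five library-drug doses (not always all listed) in √10 steps. After 5 days, a combined fix-and-stain solution (final 0.05% Triton X-100, 1% formaldehyde, 1 ug/ml Hoechst) was added. Nuclei counted on 4× images gave relative viability as treated counts over vehicle counts, reported as the median of duplicate plates.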

[1] = compound: C1=CC=C2C(=C1)N=C(S2)C(C#N)C3=NC(=NC=C3)NCCC4=CN=CC=C4 + Cc1cc(Nc2cc(N3CCN(C)CC3)nc(Sc3ccc(NC(=O)C4CC4)cc3)n2)n[nH]1 [Tozasertib] (partner 0.1 µM)
Outline: as §1

CUDC-101 + Phenformin = compound: C#Cc1cccc(Nc2ncnc3cc(OC)c(OCCCCCCC(=O)NO)cc23)c1 [CUDC-101] + N=C(N)NC(=N)NCCc1ccccc1 [Phenformin] (partner 250 µM)
Outline: as §1

CUDC-101 + Navitoclax = compound: C#Cc1cccc(Nc2ncnc3cc(OC)c(OCCCCCCC(=O)NO)cc23)c1 [CUDC-101] + CC1(C)CCC(c2ccc(Cl)cc2)=C(CN2CCN(c3ccc(C(=O)NS(=O)(=O)c4ccc(N[C@H](CCN5CCOCC5)CSc5ccccc5)c(S(=O)(=O)C(F)(F)F)c4)cc3)CC2)C1 [Navitoclax] (partner 0.5 µM)
Outline: as §1

Cell Line | relative viability (CUDC-101 + Linsitinib; first compound 0.01 µM) | relative viability (CUDC-101 + Linsitinib; first compound 0.03162 µM) | relative viability (CUDC-101 + Linsitinib; first compound 0.1 µM) | relative viability (CUDC-101 + Linsitinib; first compound 0.3162 µM) | relative viability (CUDC-101 + Linsitinib; first compound 1 µM) | relative viability ([1]; first compound 0.005 µM) | relative viability ([1]; first compound 0.01581 µM) | relative viability ([1]; first compound 0.05 µM) | relative viability ([1]; first compound 0.1581 µM) | relative viability ([1]; first compound 0.5 µM) | relative viability (CUDC-101 + Phenformin; first compound 0.01 µM) | relative viability (CUDC-101 + Phenformin; first compound 0.03162 µM) | relative viability (CUDC-101 + Phenformin; first compound 0.1 µM) | relative viability (CUDC-101 + Phenformin; first compound 0.3162 µM) | relative viability (CUDC-101 + Phenformin; first compound 1 µM) | relative viability (CUDC-101 + Navitoclax; first compound 0.01 µM) | relative viability (CUDC-101 + Navitoclax; first compound 0.03162 µM) | relative viability (CUDC-101 + Navitoclax; first compound 0.1 µM) | relative viability (CUDC-101 + Navitoclax; first compound 0.3162 µM) | relative viability (CUDC-101 + Navitoclax; first compound 1 µM)
ABC-1 | 0.816 | 0.778 | 0.601 | 0.567 | 0.303 | 0.202 | 0.196 | 0.169 | 0.152 | 0.184 | 0.256 | 0.256 | 0.212 | 0.247 | 0.186 | – | – | – | – | –
NCI-H1623 | – | – | – | – | – | 0.55 | 0.398 | 0.395 | 0.462 | 0.351 | 0.565 | 0.597 | 0.539 | 0.631 | 0.457 | – | – | – | – | –
NCI-H1563 | 1.22 | 1.06 | 1.4 | 1.18 | 1.11 | – | – | – | – | – | 0.664 | 0.643 | 0.745 | 0.613 | 0.659 | – | – | – | – | –
NCI-H1648 | – | – | – | – | – | 0.394 | 0.416 | 0.553 | 0.424 | 0.484 | – | – | – | – | – | – | – | – | – | –
LCLC-103H | 1.12 | 1.11 | 1.11 | 1.11 | 1.15 | 0.49 | 0.492 | 0.525 | 0.558 | 0.478 | 0.384 | 0.367 | 0.36 | 0.357 | 0.31 | – | – | – | – | –
A549 | 0.634 | 0.444 | 0.537 | 0.731 | 0.487 | – | – | – | – | – | 0.172 | 0.192 | 0.143 | 0.158 | 0.141 | 1.34 | 1.12 | 1.19 | 1.2 | 1.15
Calu-6 | 0.989 | 0.897 | 1.04 | 1.01 | 0.869 | – | – | – | – | – | – | – | – | – | – | 0.93 | 1.1 | 0.848 | 0.82 | 0.624
